Data on 4 compounds can be found in article PMC9853869, “The Myxobacterial Antibiotic Myxovalargin: Biosynthesis, Structural Revision, Total Synthesis, and Molecular Characterization of Ribosomal Inhibition” (Journal of the American Chemical Society, 2023).

Data set [1] concerns Escherichia coli DSM-1116. Conditions: DSM-1116, 24 h.
The test system of data set [2] is Enterococcus faecium DSM-20477. Conditions: DSM-20477, 24 h.
Data set [3] concerns Staphylococcus aureus DSM-346. Conditions: DSM-346, 24 h.
Data set [4] has as its system Chromobacterium violaceum DSM-30191. As to conditions: DSM-30191, 24 h.
Data set [5] has as its system Pseudomonas aeruginosa PA14. As to conditions: PA14, 24 h.
For data set [6], the system named is Micrococcus luteus DSM-1790. Conditions: DSM-1790, 24 h.
Data set [7] relates to Escherichia coli K12 ΔtolC. Conditions: K12, 24 h.
In data set [8] the test system is Mycobacterium smegmatis mc2155. Conditions: mc2155, 48 h.
Data set [9] has as its system Pseudomonas aeruginosa PAO1. Conditions: PAO1, 24 h.
In data set [10] the test system is 23S rRNA of the large ribosomal subunit. The data set is classed as binding, E. coli. As to conditions: 10 μM or 100 μM.
The subject of data set [11] is E. coli ribosomes bearing the A2503G mutation. The data set is classed as biochemical.
Data set [12] has as its system ribosome. Kind of data set: Toeprinting assay on ErmBL mRNA. The data set is classed as biochemical, E. coli. As to conditions: 10–100 μM, absence of isoleucine. On the procedure: To address the mechanism of action of myxovalargins, we employed the toeprinting assay, which uses reverse transcription to monitor the position of ribosomes on a mRNA (Figure 6a).[24] The assay was performed in the absence of isoleucine (Ile) such that in the absence of antibiotics, ribosomes can initiate at the AUG start codon but become stuck after translating 15 amino acids when the Ile “catch-codon” enters the A-site (Figure 6a,b). […] We also performed toeprinting reactions in the presence of 5 μM erythromycin (Ery), which allows ribosomes to translate the first 10 amino acids of the ErmBL mRNA but then stalls them with GAU (Asp) codon in the P-site (Figure 6a,b), as reported previously.[25]−[27] After pre-incubation with Ery, we titrated reactions with increasing MyxB, which also led to a loss of the Ery-dependent ErmBL stalling band and appearance of ribosomes positioned on the start codon (Figure 6b), consistent with the overlap in ribosomal binding sites of MyxB and Ery (Figure 6c,d). […] Indeed, in the MyxB-SRC, we observed the simultaneous presence of P-site tRNA and MyxB (Figure 5d) but no ribosomes with additional presence of A-site tRNA (Figure S7-5). […]

Data set [13] deals with wildtype E. coli ribosomes. The data set is classed as biochemical. Conditions: purified wildtype 70S ribosomes, increasing concentrations.
Data set [14] has as its system M. tuberculosis H37Rv.
In data set [15] the test system is M. tuberculosis. Conditions: mouse, in vivo.
Data set [16] deals with eukaryotic translation. As to conditions: cited from earlier work. The text has this: Microorganisms continue to be a major source for innovative antibiotics. Ubiquitously found but understudied soil-dwelling predatory myxobacteria have proven to be a rich source of bioactive compounds.[3]−[5] […] The myxovalargin structure was described in 1987 as comprising some congeners with Myxovalargin A (MyxA) ...

Data set [17] concerns Pasteurella multocida. Conditions: 10 mg/kg enrofloxacin, s.c.

Converted amounts (≈) assume the structure as drawn. *1 amine or outer side, *2 acyl side, *3 side chain or, on linkers, in order; H or OH if unused. Where a SMILES comes first, the peptide text is derived from it. [ ]: non-standard residue; d: D form. The star is where a group is joined. X1 = O=C(C[C@H](N[*:1])c1ccc(O)cc1)[*:2]; dVal(3-OH) = CC(C)(O)[C@@H](N)C(=O)O; X2 = CCC(C)=C(N[*:1])C(=O)[*:2]; Isovaleryl = CC(C)CC(=O)*; Agmatine = N=C(N)NCCCCN*; Isobutyryl = CC(C)C(=O)*; NMeA = CN[C@@H](C)C(=O)O; ΔVal = CC(C)=C(N)C(=O)O

The term MIC denotes the lowest concentration found to suppress growth. Read a high MIC as weaker potency. In the case of `CC(C)=C(NC(=O)C(C)C)C(=O)N[C@@H](C)C(=O)N(C)[C@@H](C)C(=O)N[C@@H](C(=O)N[C@@H](C(=O)N[C@@H](CC(=O)N[C@@H](C(=O)NC(C(=O)N[C@H](CCCNC(=N)N)C(=O)N[C@H](C(=O)N[C@@H](C(=O)NC(C(=O)N[C@H](C)C(=O)N[C@@H](C(=O)NCCCCNC(=N)N)C(C)(C)O)=C(C)C)C(C)C)C(C)C)=C(C)C)C(C)C)c1ccc(O)cc1)C(C)C)C(C)C` [Myx C] (Isobutyryl-[ΔVal]A[NMeA][dV][dV][X1][dV][ΔVal][dR]V[dV][ΔVal][dA][dVal(3-OH)]-Agmatine), the MIC in [1] came to 64 µg/mL (≈ 38.8 µM); in data set [2], 1 µg/mL (≈ 0.606 µM); in data set [3] it was 2 µg/mL (≈ 1.21 µM); in data set [4], 8 µg/mL (≈ 4.85 µM); in [5] it was 32 µg/mL (≈ 19.4 µM); in data set [6], 2 µg/mL (≈ 1.21 µM). Besides, the MIC in data set [7] worked out at 32 µg/mL (≈ 19.4 µM); in data set [8], 4 µg/mL (≈ 2.43 µM); in [9], 64 µg/mL (≈ 38.8 µM).

As to `CCC(C)=C(NC(=O)[C@H](NC(=O)[C@@H](NC(=O)[C@@H](CCCNC(=N)N)NC(=O)C(NC(=O)[C@H](NC(=O)C[C@H](NC(=O)[C@H](NC(=O)[C@H](NC(=O)[C@H](C)N(C)C(=O)[C@H](C)NC(=O)C(NC(=O)C(C)C)=C(C)C)C(C)C)C(C)C)c1ccc(O)cc1)C(C)C)=C(C)C)C(C)C)C(C)C)C(=O)N[C@H](C)C(=O)N[C@@H](C(=O)NCCCCNC(=N)N)C(C)(C)O` [MyxB] (Isobutyryl-[ΔVal]A[NMeA][dV][dV][X1][dV][ΔVal][dR]V[dV][X2][dA][dVal(3-OH)]-Agmatine), in [10], the “protection from dimethyl sulfate modification” value is “protects multiple 23S rRNA nucleotides”. For the same compound, the MIC in data set [1] is 64 µg/mL (≈ 38.5 µM); in [2], 1 µg/mL (≈ 0.601 µM); in data set [3], 8 µg/mL (≈ 4.81 µM); in data set [4], 32 µg/mL (≈ 19.2 µM); in data set [5], 32 µg/mL (≈ 19.2 µM); in [6] it was 2 µg/mL (≈ 1.2 µM). Also, the results for the MIC in data set [7], in data set [8] and in data set [9] were 32 µg/mL (≈ 19.2 µM), 8 µg/mL (≈ 4.81 µM) and 64 µg/mL (≈ 38.5 µM), respectively. For the same compound, the entries for the “in vitro translation of firefly luciferase reporter” value in data set [11] and in data set [13] were “completely resistant” and “inhibited by MyxB in a dose-dependent fashion”, respectively. In addition, in data set [12], the “position of arrested ribosomes (toeprint)” value is listed as “ribosomes positioned with the AUG start codon in the P-site”.

For the compound `CCC(C)=C(NC(=O)[C@H](NC(=O)[C@@H](NC(=O)[C@@H](CCCNC(=N)N)NC(=O)C(NC(=O)[C@H](NC(=O)C[C@H](NC(=O)[C@H](NC(=O)[C@H](NC(=O)[C@H](C)N(C)C(=O)[C@H](C)NC(=O)C(NC(=O)CC(C)C)=C(C)C)C(C)C)C(C)C)c1ccc(O)cc1)C(C)C)=C(C)C)C(C)C)C(C)C)C(=O)N[C@H](C)C(=O)N[C@@H](C(=O)NCCCCNC(=N)N)C(C)(C)O` [Myxovalargin] (Isovaleryl-[ΔVal]A[NMeA][dV][dV][X1][dV][ΔVal][dR]V[dV][X2][dA][dVal(3-OH)]-Agmatine), the “MIC (antitubercular activity)” value in data set [14] was found to be 0.2 µg/mL (≈ 0.119 µM). Moreover, the “toxicity in infected mice” value in data set [15] was “moribund within 1 week”. Further, the “inhibition of eukaryotic translation” value in data set [16] is reported as “did not inhibit eukaryotic translation”.

With `CCN1CCN(c2cc3c(cc2F)c(=O)c(C(=O)O)cn3C2CC2)CC1` [enrofloxacin, reference compound], in [17], the “Mean bacteria in liver” value came to 0 CFU/g and the “Survival rate 48 hpi” value was determined as 100%.
